pEC50: −log10 of the molar value. Read-outs that look alike come from different tables or passages of the source.
Columns and labels:
Type in all cases: cell-based, HIV-1
HIV-IIIb IN T174I DE = test: Antiviral assay in MT4 cells, HIV-IIIb IN T174I DE virus (from dose escalation passaging); settings: Human immunodeficiency virus 1, IIIB, MT4, 120 h, read-out: T174I DE EC50, MT4 cells, HIV-IIIb IN T174I DE (dose escalation), 5 days, CellTiter-Glo
In short: (§1)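 HIV-IIIb at 0.004 m.o.i., 3 h pre-infection of MT4 cells at 37 °C; 2000 cells/well in RPMI 1640 + 10% FBS with 3-fold compound dilutions, 10 conc., quadruplicate. 5-day incubation, CellTiter-Glo readout. EC50 = 50% luminescence decrease.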

HIV-IIIb IN T174I BT = test: Antiviral assay in MT4 cells, HIV-IIIb IN T174I BT virus (from viral breakthrough); settings: Human immunodeficiency virus 1, IIIB, MT4, 120 h, read-out: T174I BT EC50, MT4 cells, HIV-IIIb IN T174I BT (viral breakthrough), 5 days, CellTiter-Glo
In short: as §1

HIV-IIIb (wildtype) = test: Antiviral assay in MT4 cells, HIV-IIIb wildtype; settings: read-out: WT EC50
In short: as §1

[1] = Human immunodeficiency virus 1, IIIB, MT4, 120 h
[2] = Human immunodeficiency virus 1, 120 h, MT4 cells, HIV-IIIb wildtype, 5 days, CellTiter-Glo

| Structure (SMILES) | pEC50 (HIV-IIIb IN T174I DE) | pEC50 (HIV-IIIb IN T174I BT) | pEC50 (HIV-IIIb (wildtype); [1]) | pEC50 (HIV-IIIb (wildtype); [2]) |
| --- | --- | --- | --- | --- |
| Cc1cc2nc(-c3cnc4c(c3)c(C3CCN(C5CN(C(=O)OC(C)(C)C)C5)CC3)nn4C)sc2c(-c2ccc(Cl)cc2)c1[C@H](OC(C)(C)C)C(=O)O [Compound 116, (S)-2-(tert-butoxy)-2-(2-(3-(1-(1-(tert-butoxycarbonyl)azetidin-3-yl)piperidin-4-yl)-1-methyl-1H-pyrazolo[3,4-b]pyridin-5-yl)-7-(4-chlorophenyl)-5-methylbenzo[d]thiazol-6-yl)acetic acid] | 5.28 | 5.42 | 7.40 |  |
| CC(=O)N1CC(N2CCC(c3nn(C)c4ncc(-c5nc6cc(C)c([C@H](OC(C)(C)C)C(=O)O)c(-c7ccc(Cl)cc7)c6s5)cc34)CC2)C1 [Compound 117, (S)-2-(2-(3-(1-(1-acetylazetidin-3-yl)piperidin-4-yl)-1-methyl-1H-pyrazolo[3,4-b]pyridin-5-yl)-7-(4-chlorophenyl)-5-methylbenzo[d]thiazol-6-yl)-2-(tert-butoxy)acetic acid] | 5.77 | 5.93 | 7.57 |  |
| Cc1cc2nc(-c3cnc4c(n3)c(C3CCN(C5COC5)CC3)nn4C)sc2c(-c2ccc(Cl)cc2)c1[C@H](OC(C)(C)C)C(=O)O [Compound 118, (S)-2-(tert-butoxy)-2-(7-(4-chlorophenyl)-5-methyl-2-(1-methyl-3-(1-(oxetan-3-yl)piperidin-4-yl)-1H-pyrazolo[3,4-b]pyrazin-5-yl)benzo[d]thiazol-6-yl)acetic acid] | 6.13 | 6.53 | 8.40 |  |
| COC(=O)N1CC(N2CCC(c3nn(C)c4ncc(-c5nc6cc(C)c([C@H](OC(C)(C)C)C(=O)O)c(-c7ccc(Cl)cc7)c6s5)nc34)CC2)C1 [Compound 119, (S)-2-(tert-butoxy)-2-(7-(4-chlorophenyl)-2-(3-(1-(1-(methoxycarbonyl)azetidin-3-yl)piperidin-4-yl)-1-methyl-1H-pyrazolo[3,4-b]pyrazin-5-yl)-5-methylbenzo[d]thiazol-6-yl)acetic acid] | 6.48 | 6.51 | 8.10 |  |
| CC(=O)N1CC(N2CCC(c3nn(C)c4ncc(-c5nc6cc(C)c([C@H](OC(C)(C)C)C(=O)O)c(-c7ccc(Cl)cc7)c6s5)nc34)CC2)C1 [Compound 120, (S)-2-(2-(3-(1-(1-acetylazetidin-3-yl)piperidin-4-yl)-1-methyl-1H-pyrazolo[3,4-b]pyrazin-5-yl)-7-(4-chlorophenyl)-5-methylbenzo[d]thiazol-6-yl)-2-(tert-butoxy)acetic acid] | 6.66 | 6.73 | 8.52 |  |
| Cc1cc2nc(-c3ccc4c(c3)c(N3CC(C)(C)NC3=O)nn4C)sc2c(-c2ccc(Cl)cc2)c1[C@H](OC(C)(C)C)C(=O)O [Compound 121, (S)-2-(tert-butoxy)-2-(7-(4-chlorophenyl)-2-(3-(4,4-dimethyl-2-oxoimidazolidin-1-yl)-1-methyl-1H-indazol-5-yl)-5-methylbenzo[d]thiazol-6-yl)acetic acid] | 5.57 | 5.46 | 7.41 |  |
| COCC(C)N1CC(c2nn(C)c3ccc(-c4nc5cc(C)c([C@H](OC(C)(C)C)C(=O)O)c(-c6ccc(Cl)cc6)c5s4)cc23)C1 (stereo partly drawn) [Compound 124, (2S)-2-(tert-butoxy)-2-(7-(4-chlorophenyl)-2-(3-(1-(1-methoxypropan-2-yl)azetidin-3-yl)-1-methyl-1H-indazol-5-yl)-5-methylbenzo[d]thiazol-6-yl)acetic acid] | 5.46 | 5.84 | 8.40 |  |
| CCN1CCC(c2nn(C)c3ccc(-c4nc5cc(C)c([C@H](OC(C)(C)C)C(=O)O)c(-c6ccc(Cl)cc6)c5s4)cc23)CC1 [Compound 126, (S)-2-(tert-butoxy)-2-(7-(4-chloro-phenyl)-2-(3-(1-ethylpiperidin-4-yl)-1-methyl-1H-indazol-5-yl)-5-methylbenzo[d]thiazol-6-yl) acetic acid] | 6.27 | 6.26 | 8.10 |  |
| Cc1cc2nc(-c3ccc4c(c3)c(C3CCN(C(C)C)CC3)nn4C)sc2c(-c2ccc(Cl)cc2)c1[C@H](OC(C)(C)C)C(=O)O [Compound 127, (S)-2-(tert-butoxy)-2-(7-(4-chloro-phenyl)-2-(3-(1-isopropylpiperidin-4-yl)-1-methyl-1H-indazol-5-yl)-5-methylbenzo[d]thiazol-6-yl) acetic acid] | 5.77 | 6.03 | 8.10 |  |
| Cc1cc2nc(-c3ccc4c(c3)c(C3CCN(C5CCC5)CC3)nn4C)sc2c(-c2ccc(Cl)cc2)c1[C@H](OC(C)(C)C)C(=O)O [Compound 129, (S)-2-(tert-butoxy)-2-(7-(4-chloro-phenyl)-2-(3-(1-cyclobutylpiperidin-4-yl)-1-methyl-1H-indazol-5-yl)-5-methylbenzo[d]thiazol-6-yl) acetic acid] | 6.16 | 6.29 |  | 8.30 |
| Cc1cc2nc(-c3ccc4c(c3)c(N3CCCN(C)CC3)nn4C)sc2c(-c2ccc(Cl)cc2)c1[C@H](OC(C)(C)C)C(=O)O [Compound 132, (S)-2-(tert-butoxy)-2-(7-(4-chloro-phenyl)-5-methyl-2-(1-methyl-3-(4-methyl-1,4-diazepan-1-yl)-1H-indazol-5-yl)benzo[d]thiazol-6-yl)acetic acid] | 5.77 | 5.96 | 7.60 |  |
| Cc1cc2nc(-c3ccc4c(c3)c(N3CCC(N5CCC5)CC3)nn4C)sc2c(-c2ccc(Cl)cc2)c1[C@H](OC(C)(C)C)C(=O)O [Compound 136, (S)-2-(2-(3-(4-(azetidin-1-yl)piperidin-1-yl)-1-methyl-1H-indazol-5-yl)-7-(4-chlorophenyl)-5-methylbenzo[d]thiazol-6-yl)-2-(tert-butoxy) acetic acid] | 5.77 | 6.07 | 7.85 |  |
| Cc1cc2nc(-c3ccc4c(c3)c(N3CCC(C)(C(=O)N(C)C)CC3)nn4C)sc2c(-c2ccc(Cl)cc2)c1[C@H](OC(C)(C)C)C(=O)O [Compound 137, (S)-2-(tert-butoxy)-2-(7-(4-chloro-phenyl)-2-(3-(4-(dimethyl-carbamoyl)-4-methylpiperidin-1-yl)-1-methyl-1H-indazol-5-yl)-5-methylbenzo[d]thiazol-6-yl) acetic acid] | 6.02 | 6.16 | 8.00 |  |
| Cc1cc2nc(-c3ccc4c(c3)c(N3CCN5C(=O)COC[C@@H]5C3)nn4C)sc2c(-c2ccc(Cl)cc2)c1[C@H](OC(C)(C)C)C(=O)O [Compound 138, (S)-2-(tert-butoxy)-2-(7-(4-chloro-phenyl)-5-methyl-2-(1-methyl-3-((S)-4-oxohexa-hydropyrazino[2,1-c][1,4]oxazin-8 (1H)-yl)-1H-indazol-5-yl)benzo[d]thiazol-6-yl)acetic acid] | 6.17 | 6.43 | 8.15 |  |
| CO[C@H]1CCN(c2nn(C)c3ccc(-c4nc5cc(C)c([C@H](OC(C)(C)C)C(=O)O)c(-c6ccc(Cl)cc6)c5s4)cc23)C1 [Compound 139, (S)-2-(tert-butoxy)-2-(7-(4-chloro-phenyl)-2-(3-((S)-3-methoxy-pyrrolidin-1-yl)-1-methyl-1H-indazol-5-yl)-5-methylbenzo[d]thiazol-6-yl) acetic acid] | 5.24 | 5.11 | 7.06 |  |
| CO[C@@H]1CCN(c2nn(C)c3ccc(-c4nc5cc(C)c([C@H](OC(C)(C)C)C(=O)O)c(-c6ccc(Cl)cc6)c5s4)cc23)C1 [Compound 140, (S)-2-(tert-butoxy)-2-(7-(4-chloro-phenyl)-2-(3-((R)-3-methoxy-pyrrolidin-1-yl)-1-methyl-1H-indazol-5-yl)-5-methylbenzo[d]thiazol-6-yl) acetic acid] | 5.58 | 5.63 | 7.54 |  |
| Cc1cc2nc(-c3ccc4c(c3)c(N3CC5CCC(C3)O5)nn4C)sc2c(-c2ccc(Cl)cc2)c1[C@H](OC(C)(C)C)C(=O)O [Compound 141, (2S)-2-(2-(3-(8-oxa-3-azabicyclo [3.2.1]octan-3-yl)-1-methyl-1H-indazol-5-yl)-7-(4-chlorophenyl)-5-methylbenzo [d]thiazol-6-yl)-2-(tert-butoxy) acetic acid] | 5.41 | 5.45 | 7.62 |  |
| COC1CCN(c2nn(C)c3ccc(-c4nc5cc(C)c([C@H](OC(C)(C)C)C(=O)O)c(-c6ccc(Cl)cc6)c5s4)cc23)CC1 [Compound 142, (S)-2-(tert-butoxy)-2-(7-(4-chloro-phenyl)-2-(3-(4-methoxypiperidin-1-yl)-1-methyl-1H-indazol-5-yl)-5-methylbenzo[d]thiazol-6-yl) acetic acid] | 5.63 | 5.81 | 7.92 |  |
| Cc1cc2nc(-c3ccc4c(c3)c(N3CC5CC(C3)O5)nn4C)sc2c(-c2ccc(Cl)cc2)c1[C@H](OC(C)(C)C)C(=O)O [Compound 143, (2S)-2-(2-(3-(6-oxa-3-azabicyclo [3.1.1]heptan-3-yl)-1-methyl-1H-indazol-5-yl)-7-(4-chlorophenyl)-5-methylbenzo [d]thiazol-6-yl)-2-(tert-butoxy) acetic acid] | 5.25 | 5.24 |  | 7.57 |
| Cc1cc2nc(-c3ccc4c(c3)c(N3CCOCC3)nn4C)sc2c(-c2ccc(Cl)cc2)c1[C@H](OC(C)(C)C)C(=O)O [Compound 144, (S)-2-(tert-butoxy)-2-(7-(4-chloro-phenyl)-5-methyl-2-(1-methyl-3-morpholino-1H-indazol-5-yl)benzo[d]thiazol-6-yl)acetic acid] | 5.49 | 5.74 | 8.00 |  |
